Measured values published in ChEMBL document CHEMBL3044572, “Discovery of 2-(4-cyano-3-trifluoromethylphenyl amino)-4-(4-quinazolinyloxy)-6-piperazinyl(piperidinyl)-s-triazines as potential antibacterial agents” (2012).
Converted amounts (≈) assume the structure as drawn. The source made the active and inactive calls. The calls are words filed in the database; no cut-off is given here.

Legend:
[1] = tested on: Candida albicans; assay: Antimicrobial activity against Candida albicans MTCC 183 by agar streak dilution method; format: functional
[2] = tested on: Aspergillus clavatus; assay: Antimicrobial activity against Aspergillus clavatus MTCC 1323 by paper disk diffusion method; format: functional
[3] = tested on: Aspergillus niger; assay: Antimicrobial activity against Aspergillus niger MTCC 282 by paper-disk diffusion method; format: functional
[4] = tested on: Shigella flexneri; assay: Antimicrobial activity against Shigella flexneri MTCC 1457 at 100 ug/ml by paper-disk diffusion method; format: functional, organism-based
[5] = tested on: Klebsiella pneumoniae; assay: Antimicrobial activity against Klebsiella pneumoniae MTCC 109 at 100 ug/ml by paper disk diffusion method; format: functional, organism-based
[6] = tested on: Escherichia coli; assay: Antimicrobial activity against Escherichia coli MTCC 739 at 100 ug/ml by paper-disk diffusion method; format: functional, organism-based
[7] = tested on: Proteus vulgaris; assay: Antimicrobial activity against Proteus vulgaris MTCC 1771 by paper disk diffusion method; format: functional
[8] = tested on: Salmonella typhi; assay: Antimicrobial activity against Salmonella enterica subsp. enterica serovar Typhi MTCC 733 by paper disk diffusion method; format: functional
[9] = tested on: Pseudomonas aeruginosa; assay: Antimicrobial activity against Pseudomonas aeruginosa MTCC 741 by paper disk diffusion method; format: functional
[10] = tested on: Bacillus cereus; assay: Antimicrobial activity against Bacillus cereus MTCC 619 by paper disk diffusion method; format: functional
[11] = tested on: Staphylococcus aureus; assay: Antimicrobial activity against Staphylococcus aureus MTCC 96 by paper-disk diffusion method; format: functional
[12] = tested on: Aspergillus clavatus; assay: Antimicrobial activity against Aspergillus clavatus MTCC 1323 by agar streak dilution method; format: functional
[13] = tested on: Aspergillus niger; assay: Antimicrobial activity against Aspergillus niger MTCC 282 by agar streak dilution method; format: functional
[14] = tested on: Proteus vulgaris; assay: Antimicrobial activity against Proteus vulgaris MTCC 1771 by agar streak dilution method; format: functional
[15] = tested on: Salmonella typhi; assay: Antimicrobial activity against Salmonella enterica subsp. enterica serovar Typhi MTCC 733 by agar streak dilution method; format: functional
[16] = tested on: Pseudomonas aeruginosa; assay: Antimicrobial activity against Pseudomonas aeruginosa MTCC 741 by agar streak dilution method; format: functional
[17] = tested on: Staphylococcus aureus; assay: Antimicrobial activity against Staphylococcus aureus MTCC 96 by agar streak dilution method; format: functional
[18] = tested on: Bacillus cereus; assay: Antimicrobial activity against Bacillus cereus MTCC 619 by agar streak dilution method; format: functional
[19] = tested on: Mycobacterium tuberculosis; assay: Antimicrobial activity against Mycobacterium tuberculosis H37Rv at 100 ug/ml by BACTEC MGIT method; format: functional, organism-based
[20] = tested on: Mycobacterium tuberculosis; assay: Antimicrobial activity against Mycobacterium tuberculosis H37Rv by Lowenstein and Jensen method; format: functional; conditions: for MIC: Mycobacterium tuberculosis, H37Rv
[21] = tested on: Mycobacterium tuberculosis; assay: Antimicrobial activity against Mycobacterium tuberculosis H37Rv by BACTEC MGIT method; format: functional; conditions: Mycobacterium tuberculosis, H37Rv
[22] = tested on: Aspergillus fumigatus; assay: Antimicrobial activity against Aspergillus fumigatus MTCC 343 at 100 ug/ml by paper-disk diffusion method; format: functional, organism-based
[23] = tested on: Candida albicans; assay: Antimicrobial activity against Candida albicans MTCC 183 by paper-disk diffusion method; format: functional
[24] = tested on: Aspergillus fumigatus; assay: Antimicrobial activity against Aspergillus fumigatus MTCC 343 by paper-disk diffusion method; format: functional
[25] = tested on: Proteus vulgaris; assay: Antimicrobial activity against Proteus vulgaris MTCC 1771 at 100 ug/ml by paper disk diffusion method; format: functional, organism-based
[26] = tested on: Escherichia coli; assay: Antimicrobial activity against Escherichia coli MTCC 739 by paper disk diffusion method; format: functional
[27] = tested on: Aspergillus fumigatus; assay: Antimicrobial activity against Aspergillus fumigatus MTCC 343 by agar streak dilution method; format: functional
[28] = tested on: Escherichia coli; assay: Antimicrobial activity against Escherichia coli MTCC 739 by agar streak dilution method; format: functional
[29] = tested on: Aspergillus clavatus; assay: Antimicrobial activity against Aspergillus clavatus MTCC 1323 at 100 ug/ml by paper disk diffusion method; format: functional, organism-based
[30] = tested on: Salmonella typhi; assay: Antimicrobial activity against Salmonella enterica subsp. enterica serovar Typhi MTCC 733 at 100 ug/ml by paper disk diffusion method; format: functional, organism-based
[31] = tested on: Pseudomonas aeruginosa; assay: Antimicrobial activity against Pseudomonas aeruginosa MTCC 741 at 100 ug/ml by paper disk diffusion method; format: functional, organism-based
[32] = tested on: Bacillus cereus; assay: Antimicrobial activity against Bacillus cereus MTCC 619 at 100 ug/ml by paper disk diffusion method; format: functional, organism-based
[33] = tested on: Staphylococcus aureus; assay: Antimicrobial activity against Staphylococcus aureus MTCC 96 at 100 ug/ml by paper-disk diffusion method; format: functional, organism-based
[34] = tested on: Shigella flexneri; assay: Antimicrobial activity against Shigella flexneri MTCC 1457 by paper disk diffusion method; format: functional
[35] = tested on: Shigella flexneri; assay: Antimicrobial activity against Shigella flexneri MTCC 1457 by agar streak dilution method; format: functional
[36] = tested on: Candida albicans; assay: Antimicrobial activity against Candida albicans MTCC 183 at 100 ug/ml by paper-disk diffusion method; format: functional, organism-based
[37] = tested on: Aspergillus niger; assay: Antimicrobial activity against Aspergillus niger MTCC 282 at 100 ug/ml by paper-disk diffusion method; format: functional, organism-based
[38] = tested on: Klebsiella pneumoniae; assay: Antimicrobial activity against Klebsiella pneumoniae MTCC 109 by paper disk diffusion method; format: functional
[39] = tested on: Klebsiella pneumoniae; assay: Antimicrobial activity against Klebsiella pneumoniae MTCC 109 by agar streak dilution method; format: functional

Row | SMILES | MIC [1] [µg/mL] | inhibition zone (IZ) [3] [mm] | inhibition zone (IZ) [4] | inhibition zone (IZ) [5] | inhibition zone (IZ) [6] | inhibition zone (IZ) [7] [mm] | inhibition zone (IZ) [8] [mm] | inhibition zone (IZ) [9] [mm] | inhibition zone (IZ) [11] [mm] | MIC [13] [µg/mL] | MIC [15] [µg/mL] | MIC [17] [µg/mL] | inhibition [19] | inhibition (percent inhibition) [20] [%] | MIC [20] [µg/mL] | MIC [21] [µg/mL] | inhibition zone (IZ) [22] | inhibition zone (IZ) [23] [mm] | inhibition zone (IZ) [29] | inhibition zone (IZ) [32] | further results
1 | N#Cc1ccc(Nc2nc(Oc3ncnc4ccccc34)nc(N3CCN(c4ccccn4)CC3)n2)cc1C(F)(F)F | 100 (≈ 175 µM) | 21 | inactive | inactive | inactive | 21 | 21 | 21 | 22 | 100 (≈ 175 µM) | 100 (≈ 175 µM) | 50 (≈ 87.6 µM) | inactive | 96 | 200 (≈ 351 µM) | > 6.25 | inactive | 21 | – | – | inhibition zone (IZ) [2]: 20 mm; inhibition zone (IZ) [10]: 24 mm; MIC [12]: 100 µg/mL (≈ 175 µM); MIC [14]: 100 µg/mL (≈ 175 µM); MIC [16]: 100 µg/mL (≈ 175 µM); MIC [18]: 25 µg/mL (≈ 43.8 µM)
2 | N#Cc1ccc(Nc2nc(Oc3ncnc4ccccc34)nc(N3CCOCC3)n2)cc1C(F)(F)F | 100 (≈ 202 µM) | 22 | inactive | inactive | – | – | 22 | 22 | 22 | 100 (≈ 202 µM) | 100 (≈ 202 µM) | 100 (≈ 202 µM) | inactive | 98 | 100 (≈ 202 µM) | > 6.25 | – | 20 | inactive | – | inhibition zone (IZ) [24]: 21 mm; inhibition zone (IZ) [25]: inactive; inhibition zone (IZ) [10]: 23 mm; inhibition zone (IZ) [26]: 21 mm; MIC [27]: 100 µg/mL (≈ 202 µM); MIC [16]: 100 µg/mL (≈ 202 µM); MIC [18]: 100 µg/mL (≈ 202 µM); MIC [28]: 100 µg/mL (≈ 202 µM)
3 | CN1CCN(c2nc(Nc3ccc(C#N)c(C(F)(F)F)c3)nc(Oc3ncnc4ccccc34)n2)CC1 | – | – | – | inactive | inactive | – | – | – | – | – | – | – | inactive | 95 | 250 (≈ 493 µM) | > 6.25 | inactive | – | inactive | inactive | inhibition zone (IZ) [25]: inactive; inhibition zone (IZ) [30]: inactive; inhibition zone (IZ) [31]: inactive; inhibition zone (IZ) [33]: inactive; inhibition zone (IZ) [34]: 22 mm; MIC [35]: 100 µg/mL (≈ 197 µM); inhibition zone (IZ) [36]: inactive; inhibition zone (IZ) [37]: inactive
4 | CCN1CCN(c2nc(Nc3ccc(C#N)c(C(F)(F)F)c3)nc(Oc3ncnc4ccccc34)n2)CC1 | 100 (≈ 192 µM) | – | inactive | – | – | – | 23 | – | 23 | – | 100 (≈ 192 µM) | 100 (≈ 192 µM) | inactive | 95 | 500 (≈ 959 µM) | > 6.25 | inactive | 21 | inactive | inactive | inhibition zone (IZ) [25]: inactive; inhibition zone (IZ) [31]: inactive; inhibition zone (IZ) [38]: 19 mm; inhibition zone (IZ) [26]: 21 mm; MIC [39]: 100 µg/mL (≈ 192 µM); MIC [28]: 100 µg/mL (≈ 192 µM); inhibition zone (IZ) [37]: inactive
5 | N#Cc1ccc(Nc2nc(Oc3ncnc4ccccc34)nc(N3CCCCC3)n2)cc1C(F)(F)F | 100 (≈ 203 µM) | 21 | inactive | inactive | inactive | 20 | 20 | 22 | 22 | 100 (≈ 203 µM) | 100 (≈ 203 µM) | 100 (≈ 203 µM) | inactive | 94 | 500 (≈ 1020 µM) | > 6.25 | inactive | 20 | inactive | inactive | MIC [14]: 100 µg/mL (≈ 203 µM); MIC [16]: 100 µg/mL (≈ 203 µM)
6 | N#Cc1ccc(Nc2nc(Oc3ncnc4ccccc34)nc(N3CCN(c4ccccc4)CC3)n2)cc1C(F)(F)F | 100 (≈ 176 µM) | – | inactive | inactive | inactive | 23 | – | – | – | – | – | – | inactive | 94 | 1000 (≈ 1760 µM) | > 6.25 | inactive | 19 | inactive | inactive | inhibition zone (IZ) [30]: inactive; inhibition zone (IZ) [31]: inactive; inhibition zone (IZ) [33]: inactive; MIC [14]: 50 µg/mL (≈ 87.8 µM); inhibition zone (IZ) [37]: inactive
